Reference: paper PMC3726599, “A Metabolically-Stabilized Phosphonate Analog of Lysophosphatidic Acid Attenuates Collagen-Induced Arthritis” (PLoS ONE, 2013)
Like-named read-outs stand apart in the source and are kept apart here.

Key:
[1] = system: LPA production in whole blood; test: LPA and LPC levels in whole blood ex vivo (HPLC-MS/MS); design: species or system mouse
Description: BrP-LPA, LPA species (C14:0, C16:0, C18:0, C18:1 and C20:4) and LPC species (C14:0, C16:0, C18:0, C18:1 and C20:0) were measured in plasma with HPLC-ESI/MS/MS using RSLCnano system (Ultimate 3000) coupled in-line with an LTQ Orbitrap XL mass spectrometer (Thermo Scientific, Waltham, MA, USA). BrP-LPA and lipid (LPA, LPC) extraction from plasma was performed on ice according to the Folch method with minor modifications. Plasma samples (50 ul) were mixed with 950 ul PBS prior to extraction and spiked with the internal standard mix (17:1 LPA/LPC). Samples were extracted under neutral conditions with 4 ml of ice-cold CHCl3/CH3OH (2/1, v/v) followed by 2 ml of PBS-saturated ice-cold CHCl3/CH3OH (2/1, v/v). Each extraction step was followed by a 60 s vortex and a 1 min centrifugation step in a bench-top clinical centrifuge in a cold room at 4°C at 3,000 rpm. The lower chloroform organic phases from both neutral extraction steps were pooled and kept for LPC measurement. The remained aqueous phase was chilled on ice for 10 min and extracted twice with ice-cold acidified with acetic acid CHCl3/CH3OH (2/1, v/v) as above. The lower organic phases were pooled, neutralized to pH 6–7 (checked with pH paper as above) on ice and kept for LPA, BrP-LPA measurements. The kept neutral lower organic phase of neutral extraction and the neutralized acidified lower organic phase were evaporated to dryness. The resulting residues were resuspended in 0.15 ml of isopropanol and after brief vortex mixing the solution was transferred to the auto sampler vial. Recovery of LPA species was between 60% and 95%. Recovery of BrP-LPA was 70% and the recovery of LPC species was between 80% and 100%. The Relative Standard Deviation (RSD) was less than 7% from the plasma fortified with three different concentrations (0.1, 0.5 and 1 μΜ) of LPAs, (0.1, 1 and 10 μΜ) of BrP-LPA and (0.5, 5 and 50 μΜ) of LPCs. Analysis was performed using a Phenomenex (Phenomenex, Torrance, CA, USA) Luna Silica column (2–250 mm, 5 μm particle size) using a binary gradient program consisting of isopropanol:hexane:100 mM NH4CO2H(aq) 58:40:2 (mobile phase A) and isopropanol:hexane:100 mM NH4CO2H(aq) 50:40:10 (mobile phase B). The mobile phase was delivered at a flow rate of 0.3 ml/min and the total run time was 50 min/sample. The analysis was performed with electrospray ionization in negative SIM (Single Ion Monitoring) mode for LPA species and BrP-LPA and in positive mode for LPC species (data dependent MS/MS). The resolution was 100 K providing high accuracy for lysophospholipid measurements. Data were collected and processed with the Xcalibur software (Thermo Scientific). The precursor ion mass was used for the quantification while lipid identity was confirmed by precursor ion fragmentation using collision induced dissociation (CID). The peak area ratios (lipid/internal standard) versus the molar ratios (lipid/internal standard) were plotted and fitted to a linear regression. The linear dynamic range of LPA species and BrP-LPA was between 0.01 μM and 10 μΜ.
The inhibition model (competitive, noncompetitive, or mixed type inhibition) was evaluated by graphical analysis with Lineweaver–Burk double reciprocal plots (1/[velocity] versus 1/[substrate]) and Cornish-Bowden plot ([substrate]/[velocity] versus [Inhibitor]). These plots were generated by the measurement of ATX activity in the presence of different BrP-LPA concentrations (0–10 μΜ) and increased amounts of 16:0 LPC (100, 200, 400 μΜ). The inhibition constants (Ki) and IC50 values were determined using the mean values obtained from two independent experiments. The relative remaining ATX activity or LPA levels in the presence of the BrP-LPA was expressed as a percentage of the corresponding control value (ATX activity, LPA levels without inhibitor). […]

[2] = Mouse pharmacokinetics, plasma BrP-LPA by HPLC-MS/MS; type: in vivo; conditions: 10 mg/kg i.p.
Description: BrP-LPA, LPA species (C14:0, C16:0, C18:0, C18:1 and C20:4) and LPC species (C14:0, C16:0, C18:0, C18:1 and C20:0) were measured in plasma with HPLC-ESI/MS/MS using RSLCnano system (Ultimate 3000) coupled in-line with an LTQ Orbitrap XL mass spectrometer (Thermo Scientific, Waltham, MA, USA). BrP-LPA and lipid (LPA, LPC) extraction from plasma was performed on ice according to the Folch method with minor modifications. Plasma samples (50 ul) were mixed with 950 ul PBS prior to extraction and spiked with the internal standard mix (17:1 LPA/LPC). Samples were extracted under neutral conditions with 4 ml of ice-cold CHCl3/CH3OH (2/1, v/v) followed by 2 ml of PBS-saturated ice-cold CHCl3/CH3OH (2/1, v/v). Each extraction step was followed by a 60 s vortex and a 1 min centrifugation step in a bench-top clinical centrifuge in a cold room at 4°C at 3,000 rpm. The lower chloroform organic phases from both neutral extraction steps were pooled and kept for LPC measurement. The remained aqueous phase was chilled on ice for 10 min and extracted twice with ice-cold acidified with acetic acid CHCl3/CH3OH (2/1, v/v) as above. The lower organic phases were pooled, neutralized to pH 6–7 (checked with pH paper as above) on ice and kept for LPA, BrP-LPA measurements. The kept neutral lower organic phase of neutral extraction and the neutralized acidified lower organic phase were evaporated to dryness. The resulting residues were resuspended in 0.15 ml of isopropanol and after brief vortex mixing the solution was transferred to the auto sampler vial. Recovery of LPA species was between 60% and 95%. Recovery of BrP-LPA was 70% and the recovery of LPC species was between 80% and 100%. […] The precursor ion mass was used for the quantification while lipid identity was confirmed by precursor ion fragmentation using collision induced dissociation (CID). […]
BrP-LPA was administered intraperitoneally (IP) at 10 mg/kg in water to 6–8 week old female mice. […] Plasma samples were then analysed for plasma ATX activity and BrP-LPA/LPA/LPC levels with the TOOS activity assay and HPLC-MS/MS respectively. […]

IC50 ([1]; read-out: IC50, production of 16:0 LPA): 1.34 µM
IC50 ([1]; read-out: IC50, production of 18:0 LPA): 0.3 µM
IC50 ([1]; read-out: IC50, production of 18:1 LPA): 1.52 µM
IC50 ([1]; read-out: IC50, production of 20:4 LPA): 0.559 µM
Cmin ([2]; at 16 h): 0.15 µM
Cmax ([2]; female mice): 8 µM
t1/2 ([2]; female mice): 50 min
SMILES: CCCCCCCCCCCCCCCC(=O)OC[C@@H](O)CC(Br)P(=O)(O)O (stereo partly drawn) [BrP-LPA, 1-bromo-3(S)-hydroxy-4-(palmitoyloxy)butyl-phosphonate]
reduction of 18:0 LPA levels ([1]; BrP-LPA 10 μM): 97%
reduction of total LPA levels ([1]; BrP-LPA 10 μM): 86%
endogenous LPC levels ([1]; upon addition of BrP-LPA): no significant changes
